biological target: PD-1/PD-L1 interaction (PD-1-Ig / PD-L1-His) (Homo sapiens (Human), UniProt Q9NZQ7); assay: PD-1/PD-L1 Homogenous Time-Resolved Fluorescence (HTRF) binding assay; conditions: PD-1/PD-L1 HTRF binding assay; value given as range class; read-out: Range or IC50
In short: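 HTRF detection used 1 nM europium-cryptate anti-Ig and 20 nM APC anti-His. Compounds first saw 10 nM PD-L1-His for 15 min, and 20 nM PD-1-Ig was then added for another 15 min. Buffer was dPBS plus 0.1% BSA and 0.05% Tween-20. All concentrations are final.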

Chain of PD-1/PD-L1 interaction (PD-1-Ig / PD-L1-His) (Q9NZQ7 other isoform, or with tags, fused parts or gaps): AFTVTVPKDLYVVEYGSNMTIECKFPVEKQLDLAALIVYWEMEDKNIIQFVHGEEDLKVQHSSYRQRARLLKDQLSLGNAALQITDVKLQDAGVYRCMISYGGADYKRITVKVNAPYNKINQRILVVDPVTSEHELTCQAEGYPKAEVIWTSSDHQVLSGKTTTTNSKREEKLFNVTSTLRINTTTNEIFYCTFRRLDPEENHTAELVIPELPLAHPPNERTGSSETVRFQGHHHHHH

IC50 [nM]	Compound
0.6 to 10	Cc1c(COc2cc(OCc3cccc(C#N)c3)c(CN[C@@H](Cc3cn(Cc4ccccc4)cn3)C(=O)O)cc2Cl)cccc1-c1ccc2c(c1)OCCO2 [Example 1186, (S)-3-(1-benzyl-1H-imidazol-4-yl)-2-((5-chloro-2-((3-cyanobenzyl)oxy)-4-((3-(2,3-dihydrobenzo[b][1,4]dioxin-6-yl)-2-methylbenzyl)oxy)benzyl)amino)propanoic acid]
10 to 100	Cc1c(COc2cc(OCc3cccc(C#N)c3)c(CNC(C(=O)O)c3c[nH]c4ccccc34)cc2Cl)cccc1-c1ccc2c(c1)OCCO2 (stereo not drawn) [Example 1211, 2-((5-chloro-2-((3-cyanobenzyl)oxy)-4-((3-(2,3-dihydrobenzo[b][1,4]dioxin-6-yl)-2-methylbenzyl)oxy)benzyl)amino)-2-(1H-indol-3-yl)acetic acid]
0.6 to 10	Cc1c(COc2cc(OCc3cccc(C#N)c3)c(CN3CCCC[C@@H]3C(=O)O)cc2Cl)cccc1-c1ccc2c(c1)OCCO2 [Example 1198, (R)-1-(5-chloro-2-((3-cyanobenzyl)oxy)-4-((3-(2,3-dihydrobenzo[b][1,4]dioxin-6-yl)-2-methylbenzyl)oxy)benzyl)piperidine-2-carboxylic acid]
100 to 20000	Cc1c(COc2cc(OCc3cccc(C#N)c3)c(CNC(C(=O)O)C(F)(F)F)cc2Cl)cccc1-c1ccc2c(c1)OCCO2 (stereo not drawn) [Example 1162, 2-((5-chloro-2-((3-cyanobenzyl)oxy)-4-((3-(2,3-dihydrobenzo[b][1,4]dioxin-6-yl)-2-methylbenzyl)oxy)benzyl)amino)-3,3,3-trifluoropropanoic acid]
0.6 to 10	Cc1cc(CNC[C@@H](O)CC(=O)O)c(OCc2cccc(C#N)c2)cc1OCc1cccc(-c2ccc3c(c2)OCCO3)c1C [Example 1265, (S)-4-((2-((3-cyanobenzyl)oxy)-4-((3-(2,3-dihydrobenzo[b][1,4]dioxin-6-yl)-2-methylbenzyl)oxy)-5-methylbenzyl)amino)-3-hydroxybutanoic acid]
10 to 100	Cc1c(COc2cc(OCc3cccc(C#N)c3)c(CN[C@@H](Cc3cccc(C#N)c3)C(=O)O)cc2Cl)cccc1-c1ccc2c(c1)OCCO2 [Example 1217, (S)-2-((5-chloro-2-((3-cyanobenzyl)oxy)-4-((3-(2,3-dihydrobenzo[b][1,4]dioxin-6-yl)-2-methylbenzyl)oxy)benzyl)amino)-3-(3-cyanophenyl)propanoic acid]
100 to 20000	Cc1c(COc2ccc(CN[C@H](CO)C(=O)O)c(OCc3cccc(C#N)c3)c2Cl)cccc1-c1ccc2c(c1)OCCO2 [Example 1235, (R)-2-((3-chloro-2-((3-cyanobenzyl)oxy)-4-((3-(2,3-dihydrobenzo[b][1,4]dioxin-6-yl)-2-methylbenzyl)oxy)benzyl)amino)-3-hydroxypropanoic acid]
0.6 to 10	CCc1cc(CN[C@@](C)(CO)C(=O)O)c(OCc2cccc(C#N)c2)cc1OCc1cccc(-c2ccc3c(c2)OCCO3)c1C [Example 1290, (S)-2-(2-(3-cyanobenzyloxy)-4-(3-(2,3-dihydrobenzo[b][1,4]dioxin-6-yl) -2-methylbenzyloxy)-5-ethylbenzylamino)-3-hydroxy-2-methylpropanoic acid]
10 to 100	Cc1c(COc2cc(OCc3cccc(C#N)c3)c(CNC(Cc3nccs3)C(=O)O)cc2Cl)cccc1-c1ccc2c(c1)OCCO2 (stereo not drawn) [Example 1178, 2-((5-chloro-2-((3-cyanobenzyl)oxy)-4-((3-(2,3-dihydrobenzo[b][1,4]dioxin-6-yl)-2-methylbenzyl)oxy)benzyl)amino)-3-(thiazol-2-yl)propanoic acid]
0.6 to 10	Cc1c(COc2cc(OCc3cccc(C#N)c3)c(CNC(CCS(C)(=O)=O)C(=O)O)cc2Cl)cccc1-c1ccc2c(c1)OCCO2 (stereo not drawn) [Example 1182, 2-((5-chloro-2-((3-cyanobenzyl)oxy)-4-((3-(2,3-dihydrobenzo[b][1,4]dioxin-6-yl)-2-methylbenzyl)oxy)benzyl)amino)-4-(methylsulfonyl)butanoic acid]

Continued, compound first:

Compound	IC50 [nM]
CC(=O)NCCNCc1ccc(OCc2cccc(-c3ccccc3)c2C)cc1OCc1cccc(Oc2ccccc2F)c1 [Example 1077, N-(2-((2-((3-(2-fluorophenoxyl)benzyl)oxy)-4-((2-methyl-[1,1′-biphenyl]-3-yl)methoxy)benzyl)amino)ethyl)acetamide]	100 to 20000
Cc1c(COc2cc(OCc3cncc(C#N)c3)c(CN3CCCC[C@H]3C(=O)NS(=O)(=O)C(C)C)cc2Cl)cccc1-c1ccc2c(c1)OCCO2 [Example 1260, (S)-1-(5-chloro-2-((5-cyanopyridin-3-yl)methoxy)-4-((3-(2,3-dihydrobenzo[b][1,4]dioxin-6-yl)-2-methylbenzyl)oxy)benzyl)-N-(isopropylsulfonyl)piperidine-2-carboxamide]	0.6 to 10
CC(=O)NCCNCc1ccc(OCc2cccc(-c3ccccc3)c2C)cc1OCc1ccc(F)cc1F [Example 1064, N-(2-((2-((2,4-difluorobenzyl)oxy)-4-((2-methyl-[1,1′-biphenyl]-3-yl)methoxy)benzyl)amino)ethyl)acetamide]	100 to 20000
Cc1c(COc2cc(OCc3cncc(C#N)c3)c(CN[C@H](CO)C(=O)O)cc2F)cccc1-c1ccc2c(c1)OCCO2 [Example 3000]	0.6 to 10
Cc1cc(CN[C@](C)(CO)C(=O)O)c(OCc2cccc(C#N)c2)cc1OCc1cccc(-c2ccc3c(c2)OCCO3)c1C [Example 1269, (R)-2-((2-((3-cyanobenzyl)oxy)-4-((3-(2,3-dihydrobenzo[b][1,4]dioxin-6-yl)-2-methylbenzyl)oxy)-5-methylbenzyl)amino)-3-hydroxy-2-methylpropanoic acid]	0.6 to 10
CC(=O)NCCNCc1ccc(OCc2cccc(-c3ccccc3)c2C)cc1OCc1ccc(C(C)=O)cc1 [Example 1040, N-(2-((2-((4-acetylbenzyl)oxy)-4-((2-methyl-[1,1′-biphenyl]-3-yl)methoxy)benzyl)amino)ethyl)acetamide]	100 to 20000
Cc1c(COc2cc(OCc3cccc(C#N)c3)c(CN[C@@](C)(CO)C(=O)O)cc2Br)cccc1-c1ccc2c(c1)OCCO2 [Example 1304, (S)-2-((5-bromo-2-((3-cyanobenzyl)oxy)-4-((3-(2,3-dihydrobenzo[b][1,4]dioxin-6-yl)-2-methylbenzyl)oxy)benzyl)amino)-3-hydroxy-2-methylpropanoic acid]	0.6 to 10
Cc1cc(CN[C@@](C)(CO)C(=O)O)c(OCc2cncc(C#N)c2)cc1OCc1cccc(-c2ccc3c(c2)OCCO3)c1C#N [Example 1308, (S)-2-(4-(2-cyano-3-(2,3-dihydrobenzo[b][1,4]dioxin-6-yl)benzyloxy)-2-((5-cyanopyridin-3-yl)methoxy)-5-methylbenzylamino)-3-hydroxy-2-methylpropanoic acid]	0.6 to 10
Cc1c(COc2cc(OCc3cncc(C#N)c3)c(CN3CCCC[C@H]3C(=O)NS(=O)(=O)c3cn(C)cn3)cc2Cl)cccc1-c1ccc2c(c1)OCCO2 [Example 1261, (S)-1-(5-chloro-2-((5-cyanopyridin-3-yl)methoxy)-4-((3-(2,3-dihydrobenzo[b][1,4]dioxin-6-yl)-2-methylbenzyl)oxy)benzyl)-N-((1-methyl-1H-imidazol-4-yl)sulfonyl)piperidine-2-carboxamide]	0.6 to 10
COc1cc(OCc2cccc(-c3ccccc3)c2C)cc(OCc2cccc(C#N)c2)c1CNC(C)(CO)C(=O)O (stereo not drawn) [Example 1137, 2-((2-((3-cyanobenzyl)oxy)-6-methoxy-4-((2-methyl-[1,1′-biphenyl]-3-yl)methoxy)benzyl)amino)-3-hydroxy-2-methylpropanoic acid]	0.6 to 10
Cc1c(COc2cc(OCc3cncc(C#N)c3)c(CN[C@](C)(CO)C(=O)O)cc2Br)cccc1-c1ccc2c(c1)OCCO2 [Example 1320, (R)-2-(5-bromo-2-((5-cyanopyridin-3-yl)methoxy)-4-(3-(2,3-dihydrobenzo[b][1,4]dioxin-6-yl)-2-methylbenzyloxy)benzylamino)-3-hydroxy-2-methylpropanoic acid]	0.6 to 10
CC(=O)NCCNCc1ccc(OCc2cccc(-c3ccc4c(c3)OCCO4)c2C)c(Cl)c1OCc1cccc(C#N)c1 [Example 1237, N-(2-((3-chloro-2-((3-cyanobenzyl)oxy)-4-((3-(2,3-dihydrobenzo[b][1,4]dioxin-6-yl)-2-methylbenzyl)oxy)benzyl)amino)ethyl)acetamide]	100 to 20000
Cc1c(COc2cc(OCC(N)=O)c(CN[C@@H](CO)C(=O)O)cc2Cl)cccc1-c1ccc2c(c1)OCCO2 [Example 3030, (S)-2-((2-(2-amino-2-oxoethoxy)-5-chloro-4-((3-(2,3-dihydrobenzo[b][1,4]dioxin-6-yl)-2-methylbenzyl)oxy)benzyl)amino)-3-hydroxypropanoic acid]	0.6 to 10
Cc1cc(CN[C@@](C)(CO)C(=O)O)c(OCCCCC#N)cc1OCc1cccc(-c2ccc3c(c2)OCCO3)c1C [Example 1297, (S)-2-(2-(4-cyanobutoxy)-4-(3-(2,3-dihydrobenzo[b][1,4]dioxin-6-yl)-2-methylbenzyloxy)-5-methylbenzylamino)-3-hydroxy-2-methylpropanoic acid]	0.6 to 10
Cc1cc(CNC[C@@H](O)CC(=O)O)c(OCc2cncc(C#N)c2)cc1OCc1cccc(-c2ccc3c(c2)OCCO3)c1C [Example 1283, (S)-4-(2-((5-cyanopyridin-3-yl)methoxy)-4-(3-(2,3-dihydrobenzo[b][1,4]dioxin-6-yl)-2-methylbenzyloxy)-5-methylbenzylamino)-3-hydroxybutanoic acid]	0.6 to 10
COC(=O)c1ccc(F)c(COc2cc(OCc3cccc(-c4ccccc4)c3C)ccc2CNCCNC(C)=O)c1 [Example 1103, methyl 3-((2-(((2-acetamidoethyl)amino)methyl)-5-((2-methyl-[1,1′-biphenyl]-3-yl)methoxy)phenoxy)methyl)-4-fluorobenzoate]	100 to 20000
Cc1c(COc2ccc(CNC[C@@H](O)CC(=O)O)c(OCc3cccc(C#N)c3)c2Cl)cccc1-c1ccccc1 [Example 1232, (S)-4-((3-chloro-2-((3-cyanobenzyl)oxy)-4-((2-methyl-[1,1′-biphenyl]-3-yl)methoxy)benzyl)amino)-3-hydroxybutanoic acid]	100 to 20000

Reference: US9850225B2, “Compounds useful as immunomodulators” (BRISTOL-MYERS SQUIBB COMPANY, priority 2014, dated 2017)
